Reference: patent publication US20110172304A1, “Sex Attractant of White Peach Scale and Attraction Method” (Shin-Etsu Chemical Co., Ltd., priority 2010, published 2011)

Assays:
[1] = test system: adult males of white peach scale; experiment: Field sticky-trap attraction test in a tea field, adult males of white peach scale; format: in vivo, Pseudaulacaspis pnetagona; conditions: number attracted to trap relative to Comparative Example 1 (100% Z isomer) = 100, rubber cap with 0.1 mg in total of Z and E isomers, June 2007
Method: (§1) In accordance with the process described in J. Org. Chem. 1980, 45, 2910-2913, (R,Z)-(+)-3,9-dimethyl-6-isopropenyl-3,9-decadienyl propionate, the sex pheromone of white peach scale, was synthesized. The product thus obtained was separated into the Z isomer and the E isomer by using medium-pressure liquid column chromatography. A gray rubber cap (produced by West in US) impregnated with 0.1 mg in total of the Z isomer and the E isomer at a weight ratio of 100:0, 90:10, 80:20, 70:30, 60:40, 50:50, 40:60, 20:80 or 0:100 was used as an attractant for test.
(§2) In the emerging season of first-generation adult males of white peach scale in June, 2007, the attractant described above was attached to a white sticky trap and placed at intervals of 10 m on ridges in a tea field. The numbers of adult males of white peach scale and Thomsonisca amathus, a parasitoid wasp and natural enemy thereof, which had stuck to the sticky plates, was counted every day, respectively.
(§3) When the number of adult males of white peach scale attracted to the trap in Comparative Example 1 comprising an attractant containing 100% of (R,Z)-(+)-3,9-dimethyl-6-isopropenyl-3,9-decadienyl propionate was assigned as 100, the number attracted to each trap was calculated as a relative value. In the attraction test of Thomsonisca amathus, similar data processing was performed.

Thomsonisca amathus = experiment: Field sticky-trap attraction test in a tea field, natural-enemy parasitoid wasp; format: in vivo; conditions: number attracted to trap relative to Comparative Example 1 (100% Z isomer) = 100, rubber cap with 0.1 mg in total of Z and E isomers, white sticky trap, June 2007
Method: as §1, §2, §3

Structure (SMILES) | attraction of adult males of white peach scale [1] | attraction of Thomsonisca amathus (Thomsonisca amathus)
C=C(C)CC[C@H](C/C=C(/C)CCOC(=O)CC)C(=C)C [Comp.Ex. 1, (R,Z)-(+)-3,9-dimethyl-6-isopropenyl-3,9-decadienyl propionate] | 100.0% | 100.0%
C=C(C)CC[C@H](C/C=C(\C)CCOC(=O)CC)C(=C)C [Comp.Ex. 4, (R,E)-(+)-3,9-dimethyl-6-isopropenyl-3,9-decadienyl propionate] | 0.0% | 0.0%
